Measured values taken from PMC8032624, “Prediction of dose-dependent in vivo acetylcholinesterase inhibition by profenofos in rats and humans using physiologically based kinetic (PBK) modeling-facilitated reverse dosimetry” (Archives of Toxicology, 2021).

Biological target: AChE (Homo sapiens, UniProt P22303)
Assay: AChE inhibition by BCP
Assay type: biochemical

Sequence of AChE (P22303 32-614): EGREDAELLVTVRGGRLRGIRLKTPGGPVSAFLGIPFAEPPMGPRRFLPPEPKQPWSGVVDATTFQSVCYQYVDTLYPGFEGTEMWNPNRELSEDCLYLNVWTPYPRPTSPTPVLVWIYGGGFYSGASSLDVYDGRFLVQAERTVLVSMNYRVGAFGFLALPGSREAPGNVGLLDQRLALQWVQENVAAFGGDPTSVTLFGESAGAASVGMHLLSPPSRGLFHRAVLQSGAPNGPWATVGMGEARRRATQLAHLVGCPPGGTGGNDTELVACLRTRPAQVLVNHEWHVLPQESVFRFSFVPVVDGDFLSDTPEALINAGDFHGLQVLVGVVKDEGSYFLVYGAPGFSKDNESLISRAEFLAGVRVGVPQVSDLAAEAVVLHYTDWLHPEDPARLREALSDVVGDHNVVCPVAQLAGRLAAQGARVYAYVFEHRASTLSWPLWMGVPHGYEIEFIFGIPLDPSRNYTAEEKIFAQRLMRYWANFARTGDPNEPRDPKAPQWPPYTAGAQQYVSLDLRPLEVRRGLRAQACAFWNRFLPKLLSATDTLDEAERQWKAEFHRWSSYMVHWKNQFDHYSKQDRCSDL

In the case of `Oc1ccc(Br)cc1Cl` [BCP, 4-bromo-2-chlorophenol], the AChE inhibition was “not inhibit AChE”.
